Assay results: ChEMBL document CHEMBL5584296, “Discovery of Novel Pyrimidine-Based Derivatives as Nav1.2 Inhibitors with Efficacy in Mouse Models of Epilepsy” (J Med Chem, 2024)

How the values were obtained:
[1] = Neurotoxicity in male ICR mouse assessed as motor impairment at 5 mg/kg, ip administered for 30 mins by rotarod test relative to control; format: toxicity, organism-based; conditions: in vivo, 0.5 h
[2] = target: T1, Sodium channel protein type 2 subunit alpha (Homo sapiens, UniProt Q99250); assay: Inhibition of human Nav1.2 expressed in HEK293 cells assessed as test to control ratio at 10 uM measured after 5 mins by whole cell voltage clamp electrophysiological analysis; format: cell-based
Target sequence in this assay (Q99250 whole entry, looked up): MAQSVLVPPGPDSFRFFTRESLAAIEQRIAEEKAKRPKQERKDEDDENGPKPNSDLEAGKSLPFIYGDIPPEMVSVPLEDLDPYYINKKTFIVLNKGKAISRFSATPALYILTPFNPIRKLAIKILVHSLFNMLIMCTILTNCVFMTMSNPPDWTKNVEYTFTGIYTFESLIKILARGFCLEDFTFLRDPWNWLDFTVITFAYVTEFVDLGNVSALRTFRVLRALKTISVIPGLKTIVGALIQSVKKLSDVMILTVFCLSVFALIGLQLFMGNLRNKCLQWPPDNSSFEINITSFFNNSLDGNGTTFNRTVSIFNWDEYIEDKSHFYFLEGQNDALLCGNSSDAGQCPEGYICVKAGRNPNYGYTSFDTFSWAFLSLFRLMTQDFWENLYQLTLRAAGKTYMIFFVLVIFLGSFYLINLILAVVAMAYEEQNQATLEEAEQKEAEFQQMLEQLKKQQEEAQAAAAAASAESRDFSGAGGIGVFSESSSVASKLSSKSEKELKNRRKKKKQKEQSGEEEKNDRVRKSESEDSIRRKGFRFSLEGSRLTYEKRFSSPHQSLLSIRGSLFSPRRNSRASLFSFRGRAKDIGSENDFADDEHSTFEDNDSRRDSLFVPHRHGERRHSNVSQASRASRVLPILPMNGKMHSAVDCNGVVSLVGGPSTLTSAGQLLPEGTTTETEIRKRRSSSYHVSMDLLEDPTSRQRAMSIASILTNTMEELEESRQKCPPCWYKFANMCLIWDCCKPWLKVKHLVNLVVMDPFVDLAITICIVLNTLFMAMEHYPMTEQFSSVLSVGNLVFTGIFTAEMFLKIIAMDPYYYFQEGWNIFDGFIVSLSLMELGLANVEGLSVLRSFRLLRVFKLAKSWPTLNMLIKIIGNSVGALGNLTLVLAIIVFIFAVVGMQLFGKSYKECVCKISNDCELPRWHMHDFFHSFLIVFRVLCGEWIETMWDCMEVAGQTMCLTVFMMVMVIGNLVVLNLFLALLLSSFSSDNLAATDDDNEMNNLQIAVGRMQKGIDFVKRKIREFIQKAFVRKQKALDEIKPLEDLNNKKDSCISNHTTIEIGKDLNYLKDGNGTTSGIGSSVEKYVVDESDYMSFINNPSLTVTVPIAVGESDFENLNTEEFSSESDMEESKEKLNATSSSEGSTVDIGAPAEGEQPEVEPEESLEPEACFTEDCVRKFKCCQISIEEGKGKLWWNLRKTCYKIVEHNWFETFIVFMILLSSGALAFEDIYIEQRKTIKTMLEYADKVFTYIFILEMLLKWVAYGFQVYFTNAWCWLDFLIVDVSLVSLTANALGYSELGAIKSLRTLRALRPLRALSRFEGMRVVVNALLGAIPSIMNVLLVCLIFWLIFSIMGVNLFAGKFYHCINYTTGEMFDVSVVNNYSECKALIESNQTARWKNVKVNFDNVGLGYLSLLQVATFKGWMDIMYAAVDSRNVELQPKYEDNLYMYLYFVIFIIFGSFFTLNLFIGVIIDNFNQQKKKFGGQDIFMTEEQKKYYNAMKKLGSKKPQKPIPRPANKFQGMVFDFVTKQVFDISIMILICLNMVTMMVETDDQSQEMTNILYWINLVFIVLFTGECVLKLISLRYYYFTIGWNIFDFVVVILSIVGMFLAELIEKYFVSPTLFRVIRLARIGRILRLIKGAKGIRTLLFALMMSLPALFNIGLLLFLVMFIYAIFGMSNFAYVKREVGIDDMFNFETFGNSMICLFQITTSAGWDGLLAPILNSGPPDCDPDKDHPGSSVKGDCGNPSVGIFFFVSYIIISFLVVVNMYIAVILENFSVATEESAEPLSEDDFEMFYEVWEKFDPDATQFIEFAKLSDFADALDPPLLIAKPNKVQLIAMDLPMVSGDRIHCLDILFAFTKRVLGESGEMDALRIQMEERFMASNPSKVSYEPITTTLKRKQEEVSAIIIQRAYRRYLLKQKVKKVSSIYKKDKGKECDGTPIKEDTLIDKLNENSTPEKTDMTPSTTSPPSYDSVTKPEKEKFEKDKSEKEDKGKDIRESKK

[3] = target: T1, Sodium channel protein type 2 subunit alpha; assay: Inhibition of human Nav1.2 expressed in HEK293 cells assessed as test to control ratio at 1 uM measured after 5 mins by whole cell voltage clamp electrophysiological analysis; format: cell-based
Target sequence in this assay (Q99250 whole entry, looked up): as above

[4] = target: T1, Sodium channel protein type 2 subunit alpha; assay: Inhibition of human Nav1.2 expressed in HEK293 cells assessed as test to control ratio at 0.1 uM measured after 5 mins by whole cell voltage clamp electrophysiological analysis; format: cell-based
Target sequence in this assay (Q99250 whole entry, looked up): as above

[5] = target: T1, Sodium channel protein type 2 subunit alpha; assay: Inhibition of human Nav1.2 expressed in HEK293 cells at -40 mv holding potential measured after 5 mins by whole cell voltage clamp electrophysiological analysis; format: cell-based
Target sequence in this assay (Q99250 whole entry): as the sequence (Q99250 whole entry, looked up) above

[6] = target: T1, Sodium channel protein type 2 subunit alpha; assay: Inhibition of human Nav1.2 expressed in HEK293 cells at -120 mv holding potential measured after 5 mins by whole cell voltage clamp electrophysiological analysis; format: cell-based
Target sequence in this assay (Q99250 whole entry): as the sequence (Q99250 whole entry, looked up) above

[7] = target: Sodium channel protein type 1 subunit alpha (Homo sapiens) (UniProt P35498); assay: Inhibition of human Nav1.1 expressed in HEK293 cells assessed as test to control ratio at 0.1 uM by whole cell voltage clamp electrophysiological analysis; format: cell-based
[8] = target: Sodium channel protein type 1 subunit alpha (Homo sapiens) (UniProt P35498); assay: Inhibition of human Nav1.1 expressed in HEK293 cells assessed as test to control ratio at 1 uM by whole cell voltage clamp electrophysiological analysis; format: cell-based
[9] = target: T2, Sodium channel protein type 5 subunit alpha (Homo sapiens, UniProt Q14524); assay: Inhibition of human Nav1.5 expressed in CHL cells assessed as test to control ratio at 0.1 uM by whole cell voltage clamp electrophysiological analysis; format: cell-based
[10] = target: T2, Sodium channel protein type 5 subunit alpha; assay: Inhibition of human Nav1.5 expressed in CHL cells assessed as test to control ratio at 1 uM by whole cell voltage clamp electrophysiological analysis; format: cell-based
[11] = target: Sodium channel protein type 8 subunit alpha (Homo sapiens) (UniProt Q9UQD0); assay: Inhibition of human Nav1.6 expressed in CHO cells assessed as test to control ratio at 0.1 uM by whole cell voltage clamp electrophysiological analysis; format: cell-based
Sequence of Sodium channel protein type 8 subunit alpha (Homo sapiens) (Q9UQD0 whole entry, looked up): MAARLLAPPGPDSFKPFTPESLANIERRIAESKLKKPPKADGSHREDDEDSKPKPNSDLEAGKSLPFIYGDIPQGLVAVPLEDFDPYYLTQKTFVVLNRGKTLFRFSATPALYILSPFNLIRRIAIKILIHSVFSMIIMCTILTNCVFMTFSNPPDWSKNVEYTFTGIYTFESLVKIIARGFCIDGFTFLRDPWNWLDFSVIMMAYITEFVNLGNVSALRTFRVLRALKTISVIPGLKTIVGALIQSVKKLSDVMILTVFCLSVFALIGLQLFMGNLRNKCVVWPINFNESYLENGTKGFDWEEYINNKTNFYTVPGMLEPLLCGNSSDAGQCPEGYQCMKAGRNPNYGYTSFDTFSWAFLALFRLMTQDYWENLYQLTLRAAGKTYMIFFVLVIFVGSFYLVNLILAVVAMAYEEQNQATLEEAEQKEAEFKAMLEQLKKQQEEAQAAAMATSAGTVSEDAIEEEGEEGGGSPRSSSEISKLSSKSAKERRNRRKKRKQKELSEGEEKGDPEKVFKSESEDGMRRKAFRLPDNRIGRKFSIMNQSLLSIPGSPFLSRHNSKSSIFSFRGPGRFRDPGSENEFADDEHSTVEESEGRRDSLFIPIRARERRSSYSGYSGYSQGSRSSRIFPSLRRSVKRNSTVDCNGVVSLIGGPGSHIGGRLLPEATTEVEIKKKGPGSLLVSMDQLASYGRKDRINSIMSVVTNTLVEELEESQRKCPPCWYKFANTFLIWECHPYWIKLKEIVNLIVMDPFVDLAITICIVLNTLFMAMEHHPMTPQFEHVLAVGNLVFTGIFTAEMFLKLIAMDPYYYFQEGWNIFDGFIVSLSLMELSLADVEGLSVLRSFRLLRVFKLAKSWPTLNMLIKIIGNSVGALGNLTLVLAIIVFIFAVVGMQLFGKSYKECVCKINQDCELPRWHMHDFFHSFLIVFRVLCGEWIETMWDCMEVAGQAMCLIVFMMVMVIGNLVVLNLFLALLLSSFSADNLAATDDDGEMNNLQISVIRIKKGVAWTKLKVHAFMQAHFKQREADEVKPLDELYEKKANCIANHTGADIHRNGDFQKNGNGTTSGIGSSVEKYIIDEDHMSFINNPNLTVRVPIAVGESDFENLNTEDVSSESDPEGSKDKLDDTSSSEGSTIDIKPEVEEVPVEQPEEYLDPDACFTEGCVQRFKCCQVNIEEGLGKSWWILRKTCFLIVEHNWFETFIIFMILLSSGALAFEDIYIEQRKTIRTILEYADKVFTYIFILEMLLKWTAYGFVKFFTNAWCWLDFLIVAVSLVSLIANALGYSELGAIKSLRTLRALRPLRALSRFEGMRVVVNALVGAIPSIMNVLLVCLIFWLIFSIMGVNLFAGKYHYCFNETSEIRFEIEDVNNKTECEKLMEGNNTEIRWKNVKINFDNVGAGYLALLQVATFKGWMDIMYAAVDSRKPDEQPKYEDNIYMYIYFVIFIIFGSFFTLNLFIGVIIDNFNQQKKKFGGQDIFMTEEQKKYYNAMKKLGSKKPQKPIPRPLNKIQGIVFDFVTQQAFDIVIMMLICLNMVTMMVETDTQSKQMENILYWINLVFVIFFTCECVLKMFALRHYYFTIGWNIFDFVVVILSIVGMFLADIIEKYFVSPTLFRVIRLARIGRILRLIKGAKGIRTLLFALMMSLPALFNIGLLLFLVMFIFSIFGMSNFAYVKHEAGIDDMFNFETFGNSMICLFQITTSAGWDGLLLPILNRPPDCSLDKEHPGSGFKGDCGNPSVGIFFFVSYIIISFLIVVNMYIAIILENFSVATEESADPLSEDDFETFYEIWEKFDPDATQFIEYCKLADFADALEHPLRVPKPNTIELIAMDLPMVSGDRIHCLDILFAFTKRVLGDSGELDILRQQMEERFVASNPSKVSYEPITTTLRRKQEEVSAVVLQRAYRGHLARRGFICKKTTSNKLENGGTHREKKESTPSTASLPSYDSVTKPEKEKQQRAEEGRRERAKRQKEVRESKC

[12] = target: Sodium channel protein type 8 subunit alpha (Homo sapiens) (UniProt Q9UQD0); assay: Inhibition of human Nav1.6 expressed in CHO cells assessed as test to control ratio at 1 uM by whole cell voltage clamp electrophysiological analysis; format: cell-based
[13] = system: Mus musculus; assay: Antiepileptic activity in MES-induced seizure male ICR mouse model assessed as protection against tonic hind limb extension at 5 mg/kg, ip measured after 30 mins relative to control; format: functional; conditions: 0.5 h
[14] = system: Mus musculus; assay: Antiepileptic activity in MES-induced seizure male ICR mouse model assessed as protection against tonic hind limb extension at 15 mg/kg, ip measured after 30 mins relative to control; format: functional; conditions: 0.5 h
[15] = system: Mus musculus; assay: Antiepileptic activity in MES-induced seizure male ICR mouse model assessed as protection against tonic hind limb extension at 25 mg/kg, ip measured after 30 mins relative to control; format: functional; conditions: 0.5 h
[16] = system: Mus musculus; assay: Antiepileptic activity in MES-induced seizure male ICR mouse model assessed as protection against tonic hind limb extension administered intraperitoneally for 30 mins; format: functional; conditions: 0.5 h, route ip
[17] = system: Mus musculus; assay: Antiepileptic activity in 6 Hz(32 mA)-induced seizure male C57BL mouse model assessed as protection against seizure at 10 mg/kg, ip administered for 30 mins by epilepsy test; format: functional; conditions: 0.5 h
[18] = system: Mus musculus; assay: Antiepileptic activity in 6 Hz(32 mA)-induced seizure male C57BL mouse model assessed as protection against seizure at 30 mg/kg, ip administered for 30 mins by epilepsy test; format: functional; conditions: 0.5 h
[19] = system: Mus musculus; assay: Antiepileptic activity in 6 Hz(32 mA)-induced seizure male C57BL mouse model assessed as protection against seizure at 5 mg/kg, ip administered for 30 mins by epilepsy test; format: functional; conditions: 0.5 h
[20] = system: Mus musculus; assay: Antiepileptic activity in 6 Hz(32 mA)-induced seizure male C57BL mouse model administered intraperitoneally for 30 mins by epilepsy test; format: functional; conditions: 0.5 h, route ip
[21] = Neurotoxicity in male ICR mouse assessed as motor impairment at 30 mg/kg, ip administered for 30 mins by rotarod test relative to control; format: toxicity, organism-based; conditions: in vivo, 0.5 h
[22] = Neurotoxicity in male ICR mouse assessed as motor impairment at 35 mg/kg, ip administered for 30 mins by rotarod test relative to control; format: toxicity, organism-based; conditions: in vivo, 0.5 h
[23] = Neurotoxicity in male ICR mouse assessed as motor impairment at 37 mg/kg, ip administered for 30 mins by rotarod test relative to control; format: toxicity, organism-based; conditions: in vivo, 0.5 h
[24] = Neurotoxicity in male ICR mouse assessed as motor impairment at 40 mg/kg, ip administered for 30 mins by rotarod test relative to control; format: toxicity, organism-based; conditions: in vivo, 0.5 h
[25] = Neurotoxicity in male ICR mouse administered intraperitoneally for 30 mins; format: toxicity; conditions: in vivo, route ip
[26] = target: T1, Sodium channel protein type 2 subunit alpha; assay: Inhibition of human Nav1.2 expressed in HEK293 cells assessed as effect on steady state activation by measuring half activation potential at 0.2 uM (reference value: -36 mV); format: cell-based
Target sequence in this assay (Q99250 whole entry, looked up): as the sequence (Q99250 whole entry, looked up) above

[27] = target: T1, Sodium channel protein type 2 subunit alpha; assay: Inhibition of human Nav1.2 expressed in HEK293 cells assessed as effect on steady state inactivation by measuring half activation potential at 0.2 uM (reference value: -54 mV); format: cell-based
Target sequence in this assay (Q99250 whole entry, looked up): as above

Compound CN(C)CCCN1c2ccccc2Sc2ccc(Cl)cc21 [CHLORPROMAZINE] has an Activity [1] of 88%.

With COc1cccc(-c2cc(N3CCCc4ccc(C)cc4C3)nc(N)n2)c1 the T/C [2] was 0, the T/C [3] was 0.04 and the T/C [4] was 0.39. The IC50 [5] was 65 nM, the IC50 [6] was 158 nM and the T/C [7] was 0.18. For the same compound, the T/C [8] was 0.02, the T/C [9] was 0.18 and the T/C [10] was 0.07. It also gave a T/C [11] of 0.42, a T/C [12] of 0.09 and an Activity [13] of 25%. It also gave an Activity [14] of 44%, an Activity [15] of 88% and an ED50 [16] of 11.1 mg/kg. It also gave an Activity [17] of 38%, an Activity [18] of 63% and an Activity [19] of 13%. For the same compound, the ED50 [20] was 18.5 mg/kg, the Activity [21] was 38% and the Activity [22] was 63%. For the same compound, the Activity [23] was 88%, the Activity [24] was 100% and the TD50 at 0.5 h [25] was 31.9 mg/kg. For the same compound, the V1/2 [26] was -30 mV and the V1/2 [27] was -56 mV.
